“Also recorded” adds a separate entry of the source.
Key:
[1] = molecular target: T1, FAK (Homo sapiens, UniProt Q05397); assay: FAK degradation by immunoblot in H3122 cells; assay type: cell-based; parameters: endogenous in cells; host or cells: H3122; conditions: 10 nM to 1000 nM, 16 hours (compound 10) or 24 hours (compounds 1, 9)
[2] = molecular target: T1, FAK; assay: FAK degradation by immunoblot in PA-TU-8988T cells; assay type: cell-based; parameters: endogenous in cells; host or cells: PA-TU-8988T; conditions: PA-TU-8988T cells, 4 hours; for Degradation of FAK protein (in words): 0.1 nM to 1000 nM; for Degradation of FAK protein (in words) / Concentration at which degradation of FAK protein is evident / Concentration of maximal degradation of FAK protein: immunoblot; for inhibition at 0.01 µM / inhibition at 0.1 µM: PaTu 8988t, total FAK protein, vs DMSO; for inhibition at 0.01 µM: 10 nM, read-out: Degradation at 10 nM; for inhibition at 0.1 µM: 100 nM, read-out: Degradation at 100 nM
Experimental: (§1) Immunoblotting for FAK was performed to evaluate changes in protein levels upon FAK degrader treatment. All samples were run with equal total protein content and immunoblotting was performed using antibodies that detect total FAK protein as well as GAPDH or α-Tubulin as a loading control. Fluorescently labelled infrared secondary antibodies that enable detection using an Odyssey® CLx Imager was employed to evaluate protein levels.
FAK degraders were evaluated in immunoblot assays to determine the effective dose required to achieve FAK protein loss. Immunoblots for FAK protein were normalized relative to the loading control and percent degradation was evaluated compared to DMSO treatment.

[3] = molecular target: T1, FAK; assay: In vitro kinase assay (Life Technologies), FAK; conditions: ATP concentration = Km, duplicate; read-out: Biochemical IC50 FAK
Experimental: (§2) In vitro kinase assays with inventive compound 13 and VS-4718 were performed by Life Technologies™ in duplicate at an ATP concentration=Km for each indicated kinase. The results are summarized in Table 2 and indicate that inventive compound 13 maintained potent FAK activity, with improved activity on ALK as compared to VS-4718.

[4] = system: kinome; assay: KINOMEscan competition binding assays; conditions: 1000 nM, compared to VS-4718
Experimental: KINOMEscan® competition binding assays with inventive compound 13 and VS-4718 were performed by DiscovrX at 1000 nM. […] Additionally, despite the observed activity of compound 13 on ALK, degradation of ALK with compound 9 was not observed (FIG. 6B).

[5] = molecular target: T2, ALK (Homo sapiens, UniProt Q9UM73); assay: In vitro kinase assay (Life Technologies), ALK; parameters: purchased Life Technologies; conditions: ATP concentration = Km, duplicate; read-out: Biochemical IC50 ALK
Experimental: as §2
Target sequence in this assay (Q9UM73 19-1620): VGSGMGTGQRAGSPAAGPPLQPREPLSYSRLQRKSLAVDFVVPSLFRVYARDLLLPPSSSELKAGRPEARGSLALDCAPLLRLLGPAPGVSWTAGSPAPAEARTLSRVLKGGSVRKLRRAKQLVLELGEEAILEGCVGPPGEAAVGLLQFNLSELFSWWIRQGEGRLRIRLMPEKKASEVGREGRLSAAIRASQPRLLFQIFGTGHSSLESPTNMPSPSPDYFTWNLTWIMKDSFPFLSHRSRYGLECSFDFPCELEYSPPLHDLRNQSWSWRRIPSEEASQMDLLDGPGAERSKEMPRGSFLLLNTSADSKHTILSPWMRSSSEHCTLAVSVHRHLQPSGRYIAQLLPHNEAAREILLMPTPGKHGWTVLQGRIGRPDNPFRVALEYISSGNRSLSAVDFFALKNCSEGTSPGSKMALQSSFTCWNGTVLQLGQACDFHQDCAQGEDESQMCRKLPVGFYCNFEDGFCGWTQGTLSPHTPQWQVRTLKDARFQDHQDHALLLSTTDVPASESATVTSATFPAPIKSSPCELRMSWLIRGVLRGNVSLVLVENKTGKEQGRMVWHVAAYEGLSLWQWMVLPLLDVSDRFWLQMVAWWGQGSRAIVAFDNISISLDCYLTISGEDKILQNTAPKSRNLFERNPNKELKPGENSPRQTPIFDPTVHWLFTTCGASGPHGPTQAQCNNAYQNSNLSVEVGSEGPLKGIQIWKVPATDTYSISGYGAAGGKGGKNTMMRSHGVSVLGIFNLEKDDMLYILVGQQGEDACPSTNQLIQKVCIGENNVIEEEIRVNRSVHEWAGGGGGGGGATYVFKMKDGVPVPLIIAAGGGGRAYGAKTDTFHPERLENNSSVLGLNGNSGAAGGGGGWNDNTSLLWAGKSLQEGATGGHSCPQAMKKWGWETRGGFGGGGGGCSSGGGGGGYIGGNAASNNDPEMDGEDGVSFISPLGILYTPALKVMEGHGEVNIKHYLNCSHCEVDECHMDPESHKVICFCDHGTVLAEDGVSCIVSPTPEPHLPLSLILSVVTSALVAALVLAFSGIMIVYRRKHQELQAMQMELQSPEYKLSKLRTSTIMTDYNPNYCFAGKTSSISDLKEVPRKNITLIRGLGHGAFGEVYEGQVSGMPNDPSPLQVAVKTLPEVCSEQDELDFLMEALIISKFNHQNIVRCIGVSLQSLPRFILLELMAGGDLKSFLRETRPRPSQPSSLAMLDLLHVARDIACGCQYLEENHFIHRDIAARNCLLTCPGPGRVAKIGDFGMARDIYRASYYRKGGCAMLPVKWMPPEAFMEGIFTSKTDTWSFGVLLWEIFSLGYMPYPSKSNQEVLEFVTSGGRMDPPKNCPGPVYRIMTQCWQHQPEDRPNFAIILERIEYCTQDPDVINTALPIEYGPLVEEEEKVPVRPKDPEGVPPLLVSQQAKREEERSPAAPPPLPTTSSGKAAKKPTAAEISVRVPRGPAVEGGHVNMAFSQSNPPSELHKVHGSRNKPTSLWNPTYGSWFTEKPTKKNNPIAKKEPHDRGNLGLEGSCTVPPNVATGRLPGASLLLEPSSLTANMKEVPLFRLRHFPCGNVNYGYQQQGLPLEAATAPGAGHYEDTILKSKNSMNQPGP

[6] = molecular target: T1, FAK; assay: Rescue of compound 9-induced FAK degradation in PA-TU-8988T cells after pre-treatment; assay type: cell-based; parameters: endogenous in cells; host or cells: PA-TU-8988T; conditions: pre-treatment 2 hours (0.5 μM carfilzomib, 1.0 μM MLN4924, 10 μM lenalidomide, 10 μM compound 13), then 10 nM compound 9 for 4 hours
Experimental: as §1, with “PA-TU-8988T cells were treated with FAK degraders or indicated inhibitors for four hours at the indicated doses. After four hours, PA-TU-8988T cells were lysed in radioimmunoprecipitation assay (RIPA) buffer (Thermo Scientific™) on ice for 60 minutes and lysates were clarified by centrifugation. Immunoblotting” for “Immunoblotting”

[7] = molecular target: T3, FAK (Mus musculus, UniProt P34152); assay: In vivo FAK degradation in mouse livers; conditions: nude mice, 10 to 50 mpk intraperitoneal, three consecutive days, 4 hours after final treatment
T3 construct: from tissue; host or cells: liver of nude mice
Experimental: (§3) Mice were treated for three consecutive days and assessments were performed 4 hours after the third and final treatment.
(§4) PA-TU-8988T cells were implanted into the flanks of nude mice. After tumors had formed, mice were treated with indicated FAK degraders for three consecutive days via intraperitoneal administration and sacrificed 4 hours after the third and final treatment. Tumors and livers were harvested and lysed in RIPA on ice for 60 minutes and lysates were clarified by centrifugation. Immunoblotting for FAK was performed to evaluate changes in protein levels upon FAK degrader administration. All samples were run with equal total protein content and immunoblotting was performed using antibodies that detect total FAK protein as well as α-Tubulin as a loading control. Fluorescently labelled infrared secondary antibodies that enable detection using an Odyssey® CLx Imager was employed to evaluate protein levels.

[8] = molecular target: T1, FAK; assay: In vivo FAK degradation in PA-TU-8988T xenograft tumors; parameters: endogenous in cells; host or cells: PA-TU-8988T; conditions: nude mice, 10 to 50 mpk intraperitoneal, three consecutive days, 4 hours after final treatment
Experimental: as §3, §4

[9] = molecular target: T2, ALK; assay: ALK degradation by immunoblot in H3122 cells; assay type: cell-based; parameters: endogenous in cells; host or cells: H3122; the other entry of the earlier key: EML4 (Q9HC35, Echinoderm microtubule-associated protein-like 4); conditions: 10 nM to 1000 nM, 16 hours (compound 10) or 24 hours (compounds 1, 9)
Target sequence in this assay (Q9UM73 with tags, fused parts or gaps): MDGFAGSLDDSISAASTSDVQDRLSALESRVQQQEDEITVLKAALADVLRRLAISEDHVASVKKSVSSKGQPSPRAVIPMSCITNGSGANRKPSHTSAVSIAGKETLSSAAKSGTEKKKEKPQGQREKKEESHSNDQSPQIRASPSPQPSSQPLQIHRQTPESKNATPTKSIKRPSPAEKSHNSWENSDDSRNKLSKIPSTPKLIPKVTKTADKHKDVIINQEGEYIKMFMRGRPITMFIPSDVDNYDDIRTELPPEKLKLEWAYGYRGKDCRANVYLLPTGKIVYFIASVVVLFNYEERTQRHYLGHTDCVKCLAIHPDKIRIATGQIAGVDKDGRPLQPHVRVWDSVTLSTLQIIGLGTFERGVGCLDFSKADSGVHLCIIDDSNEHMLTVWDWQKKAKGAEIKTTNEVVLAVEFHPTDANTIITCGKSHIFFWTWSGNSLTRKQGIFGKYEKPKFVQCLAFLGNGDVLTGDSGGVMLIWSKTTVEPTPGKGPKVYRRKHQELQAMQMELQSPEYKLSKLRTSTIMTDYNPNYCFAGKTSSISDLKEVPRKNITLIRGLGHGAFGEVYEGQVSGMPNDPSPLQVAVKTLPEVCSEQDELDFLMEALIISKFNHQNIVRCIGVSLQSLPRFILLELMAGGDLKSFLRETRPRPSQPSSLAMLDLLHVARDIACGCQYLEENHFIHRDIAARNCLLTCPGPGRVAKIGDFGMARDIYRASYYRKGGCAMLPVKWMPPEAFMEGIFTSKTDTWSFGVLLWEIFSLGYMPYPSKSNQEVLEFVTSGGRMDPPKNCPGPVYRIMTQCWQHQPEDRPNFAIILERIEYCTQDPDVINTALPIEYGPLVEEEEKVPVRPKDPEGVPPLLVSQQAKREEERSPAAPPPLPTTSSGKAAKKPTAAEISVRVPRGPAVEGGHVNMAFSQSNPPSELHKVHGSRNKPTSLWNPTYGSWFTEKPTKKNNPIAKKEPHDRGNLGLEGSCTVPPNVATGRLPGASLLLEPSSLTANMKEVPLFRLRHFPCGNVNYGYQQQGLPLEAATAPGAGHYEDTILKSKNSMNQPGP
Target sequence in this assay (Q96SW2 whole entry partner): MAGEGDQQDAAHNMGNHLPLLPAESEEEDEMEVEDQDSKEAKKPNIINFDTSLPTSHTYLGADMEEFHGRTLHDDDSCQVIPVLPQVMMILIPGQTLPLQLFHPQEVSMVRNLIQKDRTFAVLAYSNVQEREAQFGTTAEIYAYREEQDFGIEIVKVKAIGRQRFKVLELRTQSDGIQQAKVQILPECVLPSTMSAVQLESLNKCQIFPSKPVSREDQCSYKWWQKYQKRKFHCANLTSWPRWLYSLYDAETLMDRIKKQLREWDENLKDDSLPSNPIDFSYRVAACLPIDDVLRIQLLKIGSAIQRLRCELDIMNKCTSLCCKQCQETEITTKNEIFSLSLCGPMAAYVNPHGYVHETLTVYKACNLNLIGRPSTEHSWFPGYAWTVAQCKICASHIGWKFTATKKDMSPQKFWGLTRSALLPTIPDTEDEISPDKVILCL

T1 sequence (Q05397 whole entry): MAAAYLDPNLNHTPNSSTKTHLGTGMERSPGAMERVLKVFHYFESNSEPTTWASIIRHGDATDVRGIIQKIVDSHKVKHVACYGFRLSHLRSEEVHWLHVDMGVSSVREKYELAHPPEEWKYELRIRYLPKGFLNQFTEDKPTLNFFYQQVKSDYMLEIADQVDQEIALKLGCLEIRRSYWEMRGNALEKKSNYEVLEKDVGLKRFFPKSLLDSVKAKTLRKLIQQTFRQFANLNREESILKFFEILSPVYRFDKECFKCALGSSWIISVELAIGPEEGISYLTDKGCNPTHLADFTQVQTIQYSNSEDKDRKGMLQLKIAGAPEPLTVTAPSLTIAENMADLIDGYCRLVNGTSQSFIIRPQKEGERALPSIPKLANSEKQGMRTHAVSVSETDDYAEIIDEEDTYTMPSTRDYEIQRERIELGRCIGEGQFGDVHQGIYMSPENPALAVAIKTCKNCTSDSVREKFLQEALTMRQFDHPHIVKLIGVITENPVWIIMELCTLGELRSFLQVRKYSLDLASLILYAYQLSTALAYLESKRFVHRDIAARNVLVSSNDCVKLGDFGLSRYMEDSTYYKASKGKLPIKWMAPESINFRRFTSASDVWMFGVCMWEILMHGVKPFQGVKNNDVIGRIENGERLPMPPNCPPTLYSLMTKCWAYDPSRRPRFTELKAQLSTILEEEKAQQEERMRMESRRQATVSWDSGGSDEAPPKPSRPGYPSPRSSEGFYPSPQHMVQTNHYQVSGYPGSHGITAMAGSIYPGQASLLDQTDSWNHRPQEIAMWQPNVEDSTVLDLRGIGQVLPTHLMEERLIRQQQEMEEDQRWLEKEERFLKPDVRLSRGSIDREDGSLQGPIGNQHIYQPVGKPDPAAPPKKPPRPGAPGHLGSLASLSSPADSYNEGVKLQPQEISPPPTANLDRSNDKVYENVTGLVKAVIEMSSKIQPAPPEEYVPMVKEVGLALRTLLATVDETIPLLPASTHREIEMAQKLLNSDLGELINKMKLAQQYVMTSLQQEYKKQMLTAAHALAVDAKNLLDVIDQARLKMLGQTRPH

Row | Compound | Degradation of FAK protein in H3122 cells (in words) [1] | Degradation of FAK protein (in words) [2] | inhibition at 0.01 µM [2] [%] | inhibition at 0.1 µM [2] [%] | Rescue of FAK degradation induced by compound 9 [6] | other results
1 | CNC(=O)c1ccccc1Nc1cc(Nc2ccc(N3CCN(CCCCCCNC(=O)COc4cccc5c4C(=O)N(C4CCC(=O)NC4=O)C5=O)CC3)cc2OC)ncc1C(F)(F)F (stereo not shown) [Compound 1, 2-((2-((4-(4-(6-(2-((2-(2,6-dioxopiperidin-3-yl)-1,3-dioxoisoindolin-4-yl)oxy)acetamido)hexyl)piperazin-1-yl)-2-methoxyphenyl)amino)-5-(trifluoromethyl)pyridin-4-yl)amino)-N-methylbenzamide] | pronounced degradation of FAK protein | rapid and pronounced degradation of FAK protein | 85 to 100 | 85 to 100 |  | Concentration at which degradation of FAK protein is evident [2]: 1 nM; Concentration of maximal degradation of FAK protein [2]: 10 nM
2 | CNC(=O)c1ccccc1Nc1cc(Nc2cc(C)c(C3CCNCC3)cc2OC(C)C)ncc1C(F)(F)F [Compound 13] |  | did not induce degradation of FAK protein | 0 to 24 | 0 to 24 | rescued the degradation induced by compound 9 | IC50 [3]: 21 nM; Kinome-wide selectivity [4]: improved kinome-wide selectivity; IC50 [5]: 26.3 nM
3 | CNC(=O)c1ccccc1Nc1cc(Nc2cc(C)c(C3CCN(CCCCCCNC(=O)COc4cccc5c4C(=O)N(C4CCC(=O)NC4=O)C5=O)CC3)cc2OC(C)C)ncc1C(F)(F)F (stereo not shown) [Compound 9, 2-((2-((4-(1-(6-(2-((2-(2,6-dioxopiperidin-3-yl)-1,3-dioxoisoindolin-4-yl)oxy)acetamido)hexyl)piperidin-4-yl)-2-isopropoxy-5-methylphenyl)amino)-5-(trifluoromethyl)pyridin-4-yl)amino)-N-methylbenzamide] | pronounced degradation of FAK protein | rapid and pronounced degradation of FAK protein | 85 to 100 | 85 to 100 |  | Degradation of FAK protein in mouse livers [7]: pronounced degradation of FAK protein; Degradation of FAK protein in PA-TU-8988T xenograft tumors [8]: pronounced degradation of FAK protein; Degradation of ALK protein in H3122 cells (in words) [9]: do not show degradation of ALK; also recorded: not observed
4 | Nc1cccc2c1CN(C1CCC(=O)NC1=O)C2=O (stereo not shown) [lenalidomide] |  |  |  |  | rescued the degradation induced by compound 9 | 
5 | NS(=O)(=O)OC[C@@H]1C[C@@H](n2ccc3c(N[C@H]4CCc5ccccc54)ncnc32)C[C@@H]1O [MLN4924] |  |  |  |  | rescued the degradation induced by compound 9 | 
6 | CC(C)C[C@H](NC(=O)[C@H](CCc1ccccc1)NC(=O)CN1CCOCC1)C(=O)N[C@@H](Cc1ccccc1)C(=O)N[C@@H](CC(C)C)C(=O)[C@@]1(C)CO1 [carfilzomib] |  |  |  |  | rescued the degradation induced by compound 9 | 
7 | CNC(=O)c1ccccc1Nc1nc(Nc2cc(C)c(C3CCN(CCCCCCNC(=O)COc4cccc5c4C(=O)N(C4CCC(=O)NC4=O)C5=O)CC3)cc2OC(C)C)ncc1C(F)(F)F (stereo not shown) [Compound 10, 2-((2-((4-(1-(6-(2-((2-(2,6-dioxopiperidin-3-yl)-1,3-dioxoisoindolin-4-yl)oxy)acetamido)hexyl)piperidin-4-yl)-2-isopropoxy-5-methylphenyl)amino)-5-(trifluoromethyl)pyrimidin-4-yl)amino)-N-methylbenzamide] | pronounced degradation of FAK protein |  |  |  |  | Degradation of ALK protein in H3122 cells (in words) [9]: degradation of ALK protein
8 | CNC(=O)c1ccccc1Nc1cc(Nc2ccc(N3CCN(CCCCCCCCNC(=O)CNc4cccc5c4C(=O)N(C4CCC(=O)NC4=O)C5=O)CC3)cc2OC)ncc1C(F)(F)F (stereo not shown) [Compound 5, 2-((2-((4-(4-(8-(2-((2-(2,6-dioxopiperidin-3-yl)-1,3-dioxoisoindolin-4-yl)amino)acetamido)octyl)piperazin-1-yl)-2-methoxyphenyl)amino)-5-(trifluoromethyl)pyridin-4-yl)amino)-N-methylbenzamide] |  |  |  |  |  | Concentration at which degradation of FAK protein is evident [2]: 1 nM; Concentration of maximal degradation of FAK protein [2]: 10 nM
9 | CNC(=O)c1ccccc1Nc1cc(Nc2ccc(N3CCOCC3)cc2OC)ncc1C(F)(F)F [VS-4718, reference compound] |  | did not induce degradation of FAK protein |  |  |  | IC50 [3]: 20 nM; IC50 [5]: 41.1 nM
10 | PF-573228 [reference compound] |  | did not induce degradation of FAK protein |  |  |  | 
